Source: patent US20100298141A1, “SUBSTITUTED PYRIDINE N-OXIDE HERBICIDES” (E. I. DU PONT DE NEMOURS AND COMPANY, priority 2007, published 2010)

Tests used:
corn = assay: Test C pre-/postemergence test; assay type: in vivo, Zea mays
From the text: (§1) Seeds of plant species selected from blackgrass (Alopecurus myosuroides), downy brome (Bromus tectorum), green foxtail (Setaria viridis), Italian ryegrass (Lolium multiflorum), wheat (Triticum aestivum), wild oat (Avena fatua), catchweed bedstraw (Galium aparine), Russian thistle (Salsola kali), […] (Cynodon dactylon), Surinam grass (Brachiaria decumbens), cocklebur (Xanthium strumarium), corn (Zea mays), crabgrass (Digitaria sanguinalis), woolly cupgrass (Eriochloa villosa), giant foxtail (Setaria faberii), Goosegrass (Eleusin indica), johnsongrass (Sorghum halepense), kochia (Kochia scoparia), lambsquarters (Chenopodium album), morningglory (Ipomoea coccinea), eastern black nightshade (Solanum ptycanthum), yellow nutsedge (Cyperus esculentus), pigweed (Amaranthus retroflexus), common ragweed (Ambrosia elation), soybean (Glycine max), common (oilseed) sunflower (Helianthus annuus), and velvetleaf (Abutilon theophrasti) were planted and treated preemergence with test chemicals formulated in a non-phytotoxic solvent mixture which included a surfactant. At the same time, plants selected from these crop and weed species and also winter barley (Hordeum vulgare), canarygrass (Phalaris minor), and chickweed (Stellaria media) were treated with postemergence applications of some of the test chemicals formulated in the same manner. Plants ranged in height from 2 to 18 cm (1- to 4-leaf stage) for postemergence treatments. […] At time of treatment, test pots were flooded to 3 cm above the soil surface, treated by application of test compounds directly to the paddy water, and then maintained at that water depth for the duration of the test. […] A dash (-) response means no test result.

wheat = assay: Test A pre-/postemergence greenhouse test; assay type: in vivo, Triticum aestivum; conditions: for Plant response rating, Wheat: 0 to 100 scale where 0 is no effect and 100 is complete control; for Wheat plant response rating: 0 to 100 scale
Procedure, shortened: (§2)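 Pots of loam–sand soil sown with the test species are sprayed preemergence on the soil surface; emerged seedlings (1–2 leaves, 2–10 cm) are sprayed postemergence at the same time. The vehicle is a non-phytotoxic solvent mixture with surfactant. Injury is scored visually after ~10 d in greenhouse.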

crabgrass = assay: Test A pre-/postemergence greenhouse test; assay type: in vivo, Digitaria sanguinalis; conditions: for Plant response rating, Crabgrass, Large: 0 to 100 scale where 0 is no effect and 100 is complete control; for Crabgrass, Large plant response rating: 0 to 100 scale
Procedure, shortened: as §2

giant foxtail [1] = assay: Test C pre-/postemergence test; assay type: in vivo, Setaria faberii; conditions: for Plant response rating, Foxtail, Giant: 31 g ai/ha, scale 0 to 100 (0 no effect, 100 complete control)
From the text: as §1

downy brome = assay: Test C pre-/postemergence test; assay type: in vivo, Bromus tectorum; conditions: for Plant response rating, Bromegrass, Downy: 31 g ai/ha, scale 0 to 100 (0 no effect, 100 complete control)
From the text: as §1

soybean = assay: Test C pre-/postemergence test; assay type: in vivo, Glycine max
From the text: as §1

giant foxtail [2] = assay: Test A pre-/postemergence greenhouse test; assay type: in vivo, Setaria faberi; conditions: for Plant response rating, Foxtail, Giant: 0 to 100 scale where 0 is no effect and 100 is complete control; for Foxtail, Giant plant response rating: 0 to 100 scale
Procedure, shortened: as §2

Goosegrass = assay: Test C pre-/postemergence test; assay type: in vivo, Eleusin indica; conditions: for Plant response rating, Goosegrass: 31 g ai/ha, scale 0 to 100 (0 no effect, 100 complete control)
From the text: as §1

common ragweed = assay: Test C pre-/postemergence test; assay type: in vivo, Ambrosia elation; conditions: for Plant response rating, Ragweed: 31 g ai/ha, scale 0 to 100 (0 no effect, 100 complete control)
From the text: as §1

yellow nutsedge = assay: Test C pre-/postemergence test; assay type: in vivo, Cyperus esculentus; conditions: for Plant response rating, Nutsedge, Yellow: 31 g ai/ha, scale 0 to 100 (0 no effect, 100 complete control)
From the text: as §1

umbrella sedge = assay: Test C flooded paddy test; assay type: in vivo, Cyperus difformis; conditions: Flood
Procedure, shortened: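 Flooded 3 cm over soil; compound into paddy water; depth kept constant. Greenhouse 13–15 d.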

morningglory [3] = assay: Test C pre-/postemergence test; assay type: in vivo, Ipomoea coccinea; conditions: for Plant response rating, Morningglory: 31 g ai/ha, scale 0 to 100 (0 no effect, 100 complete control)
From the text: as §1

woolly cupgrass = assay: Test C pre-/postemergence test; assay type: in vivo, Eriochloa villosa
From the text: as §1

morningglory [4] = assay: Test A pre-/postemergence greenhouse test; assay type: in vivo, Ipomoea spp.; conditions: for Plant response rating, Morningglory: 0 to 100 scale where 0 is no effect and 100 is complete control; for Morningglory plant response rating: 0 to 100 scale
Procedure, shortened: as §2

johnsongrass = assay: Test C pre-/postemergence test; assay type: in vivo, Sorghum halepense; conditions: for Plant response rating, Johnsongrass: 31 g ai/ha, scale 0 to 100 (0 no effect, 100 complete control)
From the text: as §1

cocklebur = assay: Test C pre-/postemergence test; assay type: in vivo, Xanthium strumarium
From the text: as §1

[5] = 62 g ai/ha, Preemergence, scale 0 to 100
[6] = 125 g ai/ha, preemergence, scale 0 (no effect) to 100 (complete control)
[7] = Preemergence, 31 g ai/ha, scale 0 to 100 (0 no effect, 100 complete control)
[8] = preemergence, 250 g ai/ha, scale 0 (no effect) to 100 (complete control)
[9] = Postemergence, 500 g ai/ha, 0 is no effect, 100 is complete control
[10] = Preemergence, 125 g ai/ha, 0 no effect, 100 complete control
[11] = 62 g ai/ha, scale 0 to 100 (0 no effect, 100 complete control)
[12] = 250 g ai/ha, scale 0 to 100, 0 no effect, 100 complete control, 13 to 15 days

With `CCn1nc(C(F)(F)F)c(CS(=O)(=O)c2cccc[n+]2[O-])c1OCC(F)(F)F` [Compound 63] the “Corn plant response rating” value (corn; [5]) was 85, the “Corn plant response rating” value (corn; [6]) was 90 and the “Plant response rating, Corn” value (corn; [7]) was 5. For the same compound, the “Corn plant response rating” value (corn; [8]) was 100, the “Plant response rating, Wheat” value (wheat; Postemergence, 125 g ai/ha) was 50 and the “Wheat plant response rating” value (wheat; [9]) was 60. For the same compound, the “Wheat plant response rating” value (wheat; [10]) was 20, the “Plant response rating, Wheat” value (wheat; Preemergence, 500 g ai/ha) was 80 and the “Plant response rating, Crabgrass, Large” value (crabgrass; Postemergence, 125 g ai/ha) was 60. For the same compound, the “Crabgrass, Large plant response rating” value (crabgrass; [9]) was 90, the “Crabgrass, Large plant response rating” value (crabgrass; [10]) was 80 and the “Plant response rating, Crabgrass, Large” value (crabgrass; Preemergence, 500 g ai/ha) was 100. The “Foxtail, Giant plant response rating” value (giant foxtail [1]; [5]) was 100, the “Foxtail, Giant plant response rating” value (giant foxtail [1]; [6]) was 100 and the “Plant response rating, Foxtail, Giant” value (giant foxtail [1]; Preemergence) was 100. For the same compound, the “Foxtail, Giant plant response rating” value (giant foxtail [1]; [8]) was 100, the “Bromegrass, Downy plant response rating” value (downy brome; [5]) was 70 and the “Bromegrass, Downy plant response rating” value (downy brome; [6]) was 98. The “Plant response rating, Bromegrass, Downy” value (downy brome; Preemergence) was 40, the “Bromegrass, Downy plant response rating” value (downy brome; [8]) was 100 and the “Soybean plant response rating” value (soybean; [5]) was 5. The “Plant response rating, Soybean” value (soybean; [7]) was 0, the “Soybean plant response rating” value (soybean; [8]) was 50 and the “Plant response rating, Foxtail, Giant” value (giant foxtail [2]; Postemergence, 125 g ai/ha) was 80. The “Foxtail, Giant plant response rating” value (giant foxtail [2]; [9]) was 90, the “Foxtail, Giant plant response rating” value (giant foxtail [2]; [10]) was 100 and the “Plant response rating, Foxtail, Giant” value (giant foxtail [2]; Preemergence, 500 g ai/ha) was 100. For the same compound, the “Goosegrass plant response rating” value (Goosegrass; [5]) was 100, the “Goosegrass plant response rating” value (Goosegrass; [6]) was 100 and the “Plant response rating, Goosegrass” value (Goosegrass; Preemergence) was 100. The “Goosegrass plant response rating” value (Goosegrass; [8]) was 100, the “Ragweed plant response rating” value (common ragweed; [5]) was 100 and the “Ragweed plant response rating” value (common ragweed; [6]) was 100. The “Plant response rating, Ragweed” value (common ragweed; Preemergence) was 90, the “Ragweed plant response rating” value (common ragweed; [8]) was 100 and the “Nutsedge, Yellow plant response rating” value (yellow nutsedge; [5]) was 50. The “Nutsedge, Yellow plant response rating” value (yellow nutsedge; [6]) was 55, the “Plant response rating, Nutsedge, Yellow” value (yellow nutsedge; Preemergence) was 0 and the “Nutsedge, Yellow plant response rating” value (yellow nutsedge; [8]) was 98. For the same compound, the “Plant response rating, Sedge, Umbrella” value (umbrella sedge; [11]) was 0, the “Plant response rating, Sedge, Umbrella” value (umbrella sedge; [12]) was 85 and the “Morningglory plant response rating” value (morningglory [3]; [5]) was 0. The “Morningglory plant response rating” value (morningglory [3]; [6]) was 0, the “Plant response rating, Morningglory” value (morningglory [3]; Preemergence) was 0 and the “Morningglory plant response rating” value (morningglory [3]; [8]) was 0. The “Cupgrass, Woolly plant response rating” value (woolly cupgrass; [5]) was 85, the “Cupgrass, Woolly plant response rating” value (woolly cupgrass; [6]) was 85 and the “Plant response rating, Cupgrass, Woolly” value (woolly cupgrass; [7]) was 0. For the same compound, the “Plant response rating, Morningglory” value (morningglory [4]; Postemergence, 125 g ai/ha) was 30, the “Morningglory plant response rating” value (morningglory [4]; [9]) was 60 and the “Morningglory plant response rating” value (morningglory [4]; [10]) was 20. The “Plant response rating, Morningglory” value (morningglory [4]; Preemergence, 500 g ai/ha) was 70, the “Johnsongrass plant response rating” value (johnsongrass; [5]) was 85 and the “Plant response rating, Johnsongrass” value (johnsongrass; Preemergence) was 85. The “Johnsongrass plant response rating” value (johnsongrass; [8]) was 98.
`CCn1nc(C(F)(F)F)c(C[S+]([O-])c2cc(C)cc[n+]2[O-])c1OCC(F)(F)F` (racemic) [Compound 66] was tested, and the “Corn plant response rating” value (corn; [5]) was 80, the “Corn plant response rating” value (corn; [6]) was 100 and the “Corn plant response rating” value (corn; [8]) was 100. The “Plant response rating, Wheat” value (wheat; Postemergence, 125 g ai/ha) was 60, the “Wheat plant response rating” value (wheat; [9]) was 70 and the “Wheat plant response rating” value (wheat; [10]) was 70. The “Plant response rating, Wheat” value (wheat; Preemergence, 500 g ai/ha) was 100, the “Plant response rating, Crabgrass, Large” value (crabgrass; Postemergence, 125 g ai/ha) was 50 and the “Crabgrass, Large plant response rating” value (crabgrass; [9]) was 90. The “Crabgrass, Large plant response rating” value (crabgrass; [10]) was 80, the “Plant response rating, Crabgrass, Large” value (crabgrass; Preemergence, 500 g ai/ha) was 100 and the “Foxtail, Giant plant response rating” value (giant foxtail [1]; [5]) was 100. The “Foxtail, Giant plant response rating” value (giant foxtail [1]; [6]) was 100, the “Plant response rating, Foxtail, Giant” value (giant foxtail [1]; Preemergence) was 100 and the “Foxtail, Giant plant response rating” value (giant foxtail [1]; [8]) was 100. For the same compound, the “Bromegrass, Downy plant response rating” value (downy brome; [5]) was 90, the “Bromegrass, Downy plant response rating” value (downy brome; [6]) was 100 and the “Plant response rating, Bromegrass, Downy” value (downy brome; Preemergence) was 70. The “Bromegrass, Downy plant response rating” value (downy brome; [8]) was 100, the “Soybean plant response rating” value (soybean; [6]) was 80 and the “Plant response rating, Foxtail, Giant” value (giant foxtail [2]; Postemergence, 125 g ai/ha) was 80. For the same compound, the “Foxtail, Giant plant response rating” value (giant foxtail [2]; [9]) was 90, the “Foxtail, Giant plant response rating” value (giant foxtail [2]; [10]) was 90 and the “Plant response rating, Foxtail, Giant” value (giant foxtail [2]; Preemergence, 500 g ai/ha) was 100. For the same compound, the “Goosegrass plant response rating” value (Goosegrass; [5]) was 100, the “Goosegrass plant response rating” value (Goosegrass; [6]) was 100 and the “Plant response rating, Goosegrass” value (Goosegrass; Preemergence) was 100. The “Goosegrass plant response rating” value (Goosegrass; [8]) was 100, the “Ragweed plant response rating” value (common ragweed; [5]) was 100 and the “Plant response rating, Ragweed” value (common ragweed; Preemergence) was 100. For the same compound, the “Ragweed plant response rating” value (common ragweed; [8]) was 100, the “Cocklebur plant response rating” value (cocklebur; [5]) was 0 and the “Cocklebur plant response rating” value (cocklebur; [8]) was 85. For the same compound, the “Nutsedge, Yellow plant response rating” value (yellow nutsedge; [5]) was 30, the “Nutsedge, Yellow plant response rating” value (yellow nutsedge; [6]) was 40 and the “Plant response rating, Nutsedge, Yellow” value (yellow nutsedge; Preemergence) was 30. The “Nutsedge, Yellow plant response rating” value (yellow nutsedge; [8]) was 50, the “Plant response rating, Sedge, Umbrella” value (umbrella sedge; [11]) was 85 and the “Plant response rating, Sedge, Umbrella” value (umbrella sedge; [12]) was 100. The “Morningglory plant response rating” value (morningglory [3]; [5]) was 90, the “Morningglory plant response rating” value (morningglory [3]; [6]) was 90 and the “Plant response rating, Morningglory” value (morningglory [3]; Preemergence) was 50. For the same compound, the “Morningglory plant response rating” value (morningglory [3]; [8]) was 100, the “Cupgrass, Woolly plant response rating” value (woolly cupgrass; [5]) was 85 and the “Cupgrass, Woolly plant response rating” value (woolly cupgrass; [6]) was 100. The “Cupgrass, Woolly plant response rating” value (woolly cupgrass; [8]) was 100, the “Plant response rating, Morningglory” value (morningglory [4]; Postemergence, 125 g ai/ha) was 60 and the “Morningglory plant response rating” value (morningglory [4]; [9]) was 90. For the same compound, the “Morningglory plant response rating” value (morningglory [4]; [10]) was 70, the “Plant response rating, Morningglory” value (morningglory [4]; Preemergence, 500 g ai/ha) was 100 and the “Johnsongrass plant response rating” value (johnsongrass; [6]) was 80. The “Plant response rating, Johnsongrass” value (johnsongrass; Preemergence) was 80 and the “Johnsongrass plant response rating” value (johnsongrass; [8]) was 80.
